# Laboratory results published in patent US11111251B2, “Positive allosteric modulators of the muscarinic acetylcholine receptor M1” (Vanderbilt University, priority 2016, dated 2021).
# Where two headings read alike, the source gives them in different places.
# Molecular target: T1, human mAChR M1 (Homo sapiens, UniProt P11229)
# T1 sequence (P11229 1-460): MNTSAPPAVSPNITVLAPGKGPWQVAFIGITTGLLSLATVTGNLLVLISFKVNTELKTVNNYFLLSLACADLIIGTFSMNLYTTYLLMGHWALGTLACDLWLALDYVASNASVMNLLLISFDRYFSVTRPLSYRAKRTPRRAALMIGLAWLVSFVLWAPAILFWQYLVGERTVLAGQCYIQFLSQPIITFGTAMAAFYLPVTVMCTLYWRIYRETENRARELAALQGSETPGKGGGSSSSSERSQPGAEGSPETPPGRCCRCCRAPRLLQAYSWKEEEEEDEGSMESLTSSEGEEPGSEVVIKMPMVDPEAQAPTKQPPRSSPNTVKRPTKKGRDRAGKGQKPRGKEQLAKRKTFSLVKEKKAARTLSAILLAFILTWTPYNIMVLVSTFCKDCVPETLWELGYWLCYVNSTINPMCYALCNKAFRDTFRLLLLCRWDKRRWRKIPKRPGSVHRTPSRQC
# Test: mAChR M1 cell-based functional assay: calcium mobilization, positive allosteric modulator mode (increase in EC20 acetylcholine response)
# Settings: for Emax: read-out: Human M1 Emax (%)
# How it was run: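 Calcium-flux assay in CHO-K1 cells stably expressing human M1, loaded with Fluo-4 AM (50 min, 37 °C) and read at 1 Hz. Compound (11-point, 1:3 series) was added at 4 s, EC20 acetylcholine at 144 s and EC80 at 230 s. PAM activity is the concentration-dependent rise in the EC20 response, fitted with a four-parameter logistic.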
# [1] = Table 2, human M1, read-out: Human M1 EC50
# [2] = Table 1, mAChR M1 cell-based functional assay, PAM mode, species not given, read-out: EC50
SMILES,EC50 [1] [nM],"Emax (Table 2, human M1) [%]",EC50 [2] [nM]
"COCC(C)NC(=O)c1cc(Cc2ccc(-c3cncs3)cc2)c2sccc2n1 (stereo not drawn) [Compound 406, N-(2-methoxy-1-methyl-ethyl)-7-[(4-thiazol-5-ylphenyl)methyl]thieno[3,2-b]pyridine-5-carboxamide]",5050,59.1,
"COCCNC(=O)c1cc(Cc2ccc(-c3ccn(C)n3)nc2)c2sccc2n1 [Compound 416, N-(2-methoxyethyl)-7-[[6-(1-methylpyrazol-3-yl)-3-pyridyl]methyl]thieno[3,2-b]pyridine-5-carboxamide]",1290,71.4,
"Cc1ccc(Cc2cc(C(=O)N[C@H]3CCCNC3)nc3ccsc23)cn1 [Compound 266, 7-[(6-methyl-3-pyridyl)methyl]-N-[(3S)-3-piperidyl]thieno[3,2-b]pyridine-5-carboxamide]",> 10000,59.3,
"O=C(NC1CCCNC1=O)c1cc(Cc2ccc(C(F)(F)F)nc2)c2sccc2n1 (stereo not drawn) [Compound 97, N-(2-oxo-3-piperidyl)-7-[[6-(trifluoromethyl)-3-pyridyl]methyl]thieno[3,2-b]pyridine-5-carboxamide]",> 10000,75.2,
"CC1(O)CCN(C(=O)c2cc(Cc3ccc(-n4cccn4)cc3)c3sccc3n2)CC1 [Compound 82, (4-hydroxy-4-methyl-1-piperidyl)-[7-[(4-pyrazol-1-ylphenyl)methyl]thieno[3,2-b]pyridin-5-yl]methanone]",> 10000,70.4,
"Cc1nc(-c2ccc(Cc3cc(C(=O)NC4CCCCC4)nc4ccsc34)cc2)cs1 [Compound 185, N-cyclohexyl-7-[[4-(2-methylthiazol-4-yl)phenyl]methyl]thieno[3,2-b]pyridine-5-carboxamide]",4230,52.1,
"O=C(NC1CCN2CCCC12)c1cc(Cc2ccc(-c3cscn3)cc2)c2sccc2n1 (stereo not drawn) [Compound 220, N-(hexahydro-1H-pyrrolizin-1-yl)-7-[(4-thiazol-4-ylphenyl)methyl]thieno[3,2-b]pyridine-5-carboxamide]",1280,80.6,
"O=C(NC1CCCCC1)c1cc(Cc2ccc(-n3cccn3)cc2)c2sccc2n1 [Compound 72, N-cyclohexyl-7-[(4-pyrazol-1-ylphenyl)methyl]thieno[3,2-b]pyridine-5-carboxamide]",> 10000,84.5,
"Cn1ccc2nc(C(=O)N[C@H]3CCCCC[C@@H]3O)cc(Cc3ccc(-c4cscn4)cc3)c21 [Compound 456, N-[(1S,2S)-2-hydroxycycloheptyl]-1-methyl-7-[(4-thiazol-4-ylphenyl)methyl]pyrrolo[3,2-b]pyridine-5-carboxamide]",129,67.9,
O=C(N[C@@H]1CCOC1)c1cc(Cc2ccc(-c3nccs3)cc2)c2sccc2n1 [Compound 368],2300,65.6,
Cc1ccc(Cc2cc(C(=O)N[C@H]3CC[C@@H]3O)nc3c(C)csc23)cn1 [Compound 99],7300,77.7,
"O=C(NC1CC(F)(F)C1)c1ccc(Cc2cc(C(=O)NC3CC(F)(F)C3)nc3ccsc23)cc1 [Compound 408, N-(3,3-difluorocyclobutyl)-7-[[4-[(3,3-difluorocyclobutyl)carbamoyl]phenyl]methyl]thieno[3,2-b]pyridine-5-carboxamide]",397,45,

# Continued, values first:
EC50 [1] [nM],"Emax (Table 2, human M1) [%]",EC50 [2] [nM],SMILES
5140,65.8,,Cn1ccc(-c2ccc(Cc3cc(C(=O)NC4CN(C5COC5)C4)nc4ccsc34)cn2)n1 [Compound 425]
312,45.5,,"O=C(NC1CCOCC1)c1cc(Cc2c(F)cc(-c3cscn3)cc2F)c2sccc2n1 [Compound 271, 7-[(2,6-difluoro-4-thiazol-4-yl-phenyl)methyl]-N-tetrahydropyran-4-yl-thieno[3,2-b]pyridine-5-carboxamide]"
38.8,87,,"O=C(N[C@H]1CCC[C@@H]1O)c1cc(Cc2ccc(-c3cscn3)cc2)c2sccc2n1 [Compound 206, N-[(1S,2S)-2-hydroxycyclopentyl]-7-[(4-thiazol-4-ylphenyl)methyl]thieno[3,2-b]pyridine-5-carboxamide]"
548,80.3,,"Cc1ncc(Cc2cc(C(=O)N[C@@H]3CCOC[C@H]3O)nc3ccsc23)s1 [Compound 137, N-[(3S,4R)-3-hydroxytetrahydropyran-4-yl]-7-[(2-methylthiazol-5-yl)methyl]thieno[3,2-b]pyridine-5-carboxamide]"
1160,80.7,,"O=C(NCC1CCCCO1)c1cc(Cc2ccc(-n3cccn3)cc2)c2sccc2n1 (stereo not drawn) [Compound 289, 7-[(4-pyrazol-1-ylphenyl)methyl]-N-(tetrahydropyran-2-ylmethyl)thieno[3,2-b]pyridine-5-carboxamide]"
167,58.9,,"Cn1ccc(-c2ccc(Cc3cc(C(=O)NC4CCOC(C)(C)C4)nc4ccsc34)cn2)n1 (stereo not drawn) [Compound 378, N-(2,2-dimethyltetrahydropyran-4-yl)-7-[[6-(1-methylpyrazol-3-yl)-3-pyridyl]methyl]thieno[3,2-b]pyridine-5-carboxamide]"
> 10000,61.9,,"Cn1ncc2nc(C(=O)N[C@@H]3CC[C@H]3O)cc(Cc3ccc(-c4cscn4)cc3)c21 [Compound 490, N-[(1R,2R)-2-hydroxycyclobutyl]-1-methyl-7-[(4-thiazol-4-ylphenyl)methyl]pyrazolo-[4,3-b]pyridine-5-carboxamide]"
3420,47.5,,O=C(NC1CN(CC(F)(F)F)C1)c1cc(Cc2ccc(-n3cccn3)cc2)c2sccc2n1 [Compound 432]
106,85.8,,"Cn1ccc(-c2ccc(Cc3cc(C(=O)NC4CCOCC4)nc4ccn(C)c34)cc2)n1 [Compound 473, 1-methyl-7-[[4-(1-methylpyrazol-3-yl)phenyl]methyl]-N-tetrahydropyran-4-yl-pyrrolo[3,2-b]pyridine-5-carboxamide]"
,,> 10000,Cn1cc(-c2ccc(Oc3cc(C(=O)N[C@H]4CCCCC[C@@H]4O)nc4ccsc34)c(F)c2)cn1 [Compound 9]
,,> 10000,"Cn1cc(-c2ccc(Oc3cc(C(=O)NC4CC[C@H]4O)nc4ccsc34)c(F)c2)cn1 (stereo partly drawn) [Compound 5, 7-[2-fluoro-4-(1-methylpyrazol-4-yl)phenoxy]-N-[(2R)-2-hydroxycyclobutyl]thieno[3,2-b]pyridine-5-carboxamide]"
> 10000,72.7,,"O=C(NC1CCOCC1)c1cc(C(=O)c2ccc(-n3cccn3)cc2)c2sccc2n1 [Compound 264, 7-(4-pyrazol-1-ylbenzoyl)-N-tetrahydropyran-4-yl-thieno[3,2-b]pyridine-5-carboxamide]"
84.9,93.3,,"Cn1cc(-c2ccc(Cc3cc(C(=O)NCC4CCO4)nc4ccsc34)cn2)cn1 (stereo not drawn) [Compound 338, 7-[[6-(1-methylpyrazol-4-yl)-3-pyridyl]methyl]-N-(oxetan-2-ylmethyl)thieno[3,2-b]pyridine-5-carboxamide]"
,,> 10000,"Cc1ccc(Oc2cc(C(=O)NC3CCCNC3=O)nc3ccsc23)cn1 (stereo not drawn) [Compound 29, 7-[(6-methyl-3-pyridyl)oxy]-N-(2-oxo-3-pipendyl)thieno[3,2-b]pyridine-5-carboxamide]"
> 10000,62.4,,"Cc1ccc(Cc2cc(C(=O)Nc3c[nH]cn3)nc3ccsc23)cn1 [Compound 70, N-(1H-imidazol-4-yl)-7-[(6-methyl-3-pyridyl)methyl]thieno[3,2-b]pyridine-5-carboxamide]"
